These results are taken from patent publication US6759385B1, “Methods to treat undesirable immune responses” (Regents of the University of Minnesota, priority 1997, dated 2004).

For test [1], the system named is established EMG in B6 mice. Put plainly: Subcutaneous treatment, post-priming protocol, established EMG (Example IV). It counts as in vivo, mouse. The following applies: at 44 weeks, s.c. post-priming protocol. As to the method: B6 mice (Jackson Laboratory, Bar Harbor, Me.) were injected s.c. with 100 μl of PBS containing increasing amounts of a pool of the same amount in weight of each of the three epitope peptides Tα150-169, Tα180-200 and Tα360-378 (‘peptide pool’), or 200 μg of Tα150-169 alone, or 100 μl of PBS containing 0.1% Triton X-100 and 10 μg of solubilized TAChR. Two different treatment schedules were used, referred to as prevention and post-priming protocols. In the prevention protocol, the peptides or solubilized TAChR were administered twice per week for 14 weeks, starting 2 weeks before the beginning of the immunization with TAChR. In the post-priming protocol, peptides or solubilized TAChR were administered twice per week for […], starting 8 weeks after the beginning of the TAChR immunization. Control mice received 100 μl of peptide-free PBS, following the same schedules.
Immunization 8-10 week old mice were immunized by s.c. injections, along the back and at the base of the tail, of TAChR (a total of 50 μg in 100 μl of PBS for each immunization) emulsified in an equal volume of CFA for the first injection, and IFA for the following two boosts. The mice were injected for a total of three times at 3-4 week intervals. At the end of the observation period, the mice received a third boost, and were sacrificed 5-7 days later. Control mice were injected with clean PBS in the appropriate adjuvant.
Evaluation of the symptoms of EMG The EMG symptoms were quantified using a forced exercise test sensitized by i.p. injection of a minute amount of pancuronium bromide (0.03 mg/kg) just before the test (Karachunski et al., 1995). The mouse hangs from a grid suspended above a soft padding, and the time it takes the mouse to fall three times (‘holding time’) was measured. The test is parametric, and gives a quantitative assessment of the mouse weakness. The myasthenic nature of the weakness was verified by injecting i.p. edrophonium chloride (Reversol, Organon, West Orange, N.J.), which is a cholinesterase inhibitor. […] The mice were tested without knowledge of their treatment. […]

The subject of test [2] is anti-TAChR and anti-peptide IgG subclasses. The test is described as follows: ELISA of anti-TAChR and anti-peptide IgG subclasses (Example III). The note with it: IL-4 KO mice, nasal α epitope pool. It counts as in vivo, mouse. As for the experimental part:
Assay of Anti-TAChR and Anti-peptide IgG Subclasses. The relative concentration of IgG subclasses of anti-TAChR and anti-peptide antibodies in the sera of peptide- and sham-treated mice was measured by ELISA after immunization with TAChR. Pooled sera from three-four mice that had received identical treatments was used. The sera used in this assay was obtained at the end of the observation period (10 weeks after beginning of the anti-TAChR immunization).
Ninety-six well plates (Nunc, Karstrup, Denmark) were washed extensively and incubated as follows: 4 hours with a 10 μg/ml solution of TAChR or of individual peptides Tα150-169, Tα181-200 and Tα360-378 in 0.1 M Na phosphate buffer, pH 9.5 (two wells for each antigen), 1 hr with PBS plus 3% bovine serum albumin (BSA), 2 hours with mouse serum (serial dilutions from 1:100 to 1:40,000 in PBS plus 3% BSA), 1 hr with a dilution 1:1000 in PBS plus 3% BSA of goat antibody specific for the total IgG, or IgGl, or IgG2a, or IgG2b or IgG3 (Mouse Monoclonal Isotyping Kit, Sigma, St. Louis, Mo.), and 30 minutes with a 1:3000 dilution of peroxidase-conjugate rabbit anti-goat IgG (Sigma) in PBS plus 3% BSA. The plates were washed, and developed them for 20-60 minutes with ABTS peroxidase substrate system (Kirkegaard & Perry Laboratories Inc., Gaithersburg, Md.). […] The OD was read at 405 nanometers. […]

The test system of test [3] is CD8+ depleted spleen cells. Put plainly: Lymphocyte proliferation assay, CD8+ depleted spleen cells of IL-4 KO mice. It counts as cell-based, mouse. The note with it: IL-4 KO mice immunized with TAChR, 10 μg/ml peptide. As to the method: Lymphocyte Proliferation Assay. Two weeks after the last immunization, spleen cells (Bellone et al., 1991) were obtained from three identically treated IL-4 KO mice. The cells were pooled and depleted them in CD8^+ cells using paramagnetic beads and rat anti-mouse CD8^+ antibody (Pharmingen, San Diego, Calif.). The cells were suspended in RPMI-1640 (Gibco, Grand Island, N.Y.) supplemented with 10% heat inactivated fetal calf serum (Gibco), 50 μM 2-mercaptoethanol, 1 mM L-glutamine, 10 mM Hepes, 1 mM sodium pyruvate, 100 U/ml penicillin and 100 μg/ml streptomycin (×10^6 cells/ml). The cells were seeded in triplicate in 96 flat-bottom well plates (200 μl/well). One of the following antigens or stimulants was added: 10 μg/ml phytohemoagglutinine (PHA) (Sigma); 10 μg/ml TAChR; the pools of overlapping peptides spanning the α, β, γ, or δ subunit sequences (5 μg/ml) of each peptide); and 10 μg/ml of the individual a subunit peptides. Controls were triplicate wells cultivated without any antigen, or with or a 20-residue control peptide synthesized by the same method, unrelated to the TAChR sequence (10 μg). After four days the cells were labeled for 16 hours with ^3H-thymidine (1 μCi per well, specific activity 6.7 Ci/mmol, Dupont, Boston, Mass.), and harvested (Titertek, Skatron, Sterling, Va.). The ^3H-thymidine incorporation was measured by liquid scintillation.

For “peptide Tα150-169: synthetic peptide corresponding to residues 150-169 of the TAChR α subunit (TYDGTKVSISPESDRPDLST; UniProt P02710 174-193, looked up, fragment)”, in test [1], the “mice with holding times of 6.2 or less” value came out at 6%. Also, the “anti-peptide IgG2a” value in test [2] is “moderate synthesis of IgG2a”. In test [3], the “recognition of individual peptide by cells from sham-treated mice” value was “recognized strongly”.
